Experimental data: PMC7587962, “Evaluation of Cytotoxicity and α-Glucosidase Inhibitory Activity of Amide and Polyamino-Derivatives of Lupane Triterpenoids” (Molecules, 2020)
Read-outs that look alike come from different tables or passages of the source.

Tests used:
Ovarian Cancer subpanel = assay: NCI-60 screen, subpanel Ovarian Cancer
CCRF-CEM = assay: NCI-60 SRB screen: leukemia CCRF-CEM; assay type: cell-based; conditions: Homo sapiens, 48 h
SK-MEL-28 = assay: NCI-60 SRB screen: melanoma SK-MEL-28; assay type: cell-based, human; conditions: SK-MEL-28
NSCL cancer subpanel = assay: NCI-60 screen, subpanel NSCL cancer
SNB-75 = assay: NCI-60 SRB screen: CNS cancer SNB-75; assay type: cell-based, human; conditions: SNB-75
EKVX = assay: NCI-60 SRB screen: non-small cell lung cancer EKVX; assay type: cell-based, human
SK-MEL-5 = assay: NCI-60 SRB screen: melanoma SK-MEL-5; assay type: cell-based, human; conditions: SK-MEL-5
CNS cancer subpanel = assay: NCI-60 screen, subpanel CNS cancer
IGROV1 = assay: NCI-60 SRB screen: ovarian cancer IGROV1; assay type: cell-based, human; conditions: IGROV1
NCI/ADR-RES = assay: NCI-60 SRB screen: ovarian cancer NCI/ADR-RES; assay type: cell-based, human
HOP-92 = assay: NCI-60 SRB screen: non-small cell lung cancer HOP-92; assay type: cell-based, human; conditions: HOP-92
UACC-62 = assay: NCI-60 SRB screen: melanoma UACC-62; assay type: cell-based, human; conditions: UACC-62
Colon Cancer subpanel = assay: NCI-60 screen, subpanel Colon Cancer
NCI-H460 = assay: NCI-60 SRB screen: non-small cell lung cancer NCI-H460; assay type: cell-based; conditions: Homo sapiens, 48 h, NCI-H460
MCF7 = assay: NCI-60 SRB screen: breast cancer MCF7; assay type: cell-based; conditions: Homo sapiens, 48 h, MCF7
Renal Cancer subpanel = assay: NCI-60 screen, subpanel Renal Cancer
Leukemia subpanel = assay: NCI-60 screen, subpanel Leukemia
HS 578T = assay: NCI-60 SRB screen: breast cancer HS 578T; assay type: cell-based, human; conditions: HS 578T
SF-295 = assay: NCI-60 SRB screen: CNS cancer SF-295; assay type: cell-based, human; conditions: SF-295
SR = assay: NCI-60 SRB screen: leukemia SR; assay type: cell-based; conditions: Homo sapiens, 48 h
M14 = assay: NCI-60 SRB screen: melanoma M14; assay type: cell-based, human; conditions: M14
UACC-257 = assay: NCI-60 SRB screen: melanoma UACC-257; assay type: cell-based, human; conditions: UACC-257
HL-60(TB) = assay: NCI-60 SRB screen: leukemia HL-60(TB); assay type: cell-based; conditions: Homo sapiens, 48 h, HL-60(TB)
OVCAR-5 = assay: NCI-60 SRB screen: ovarian cancer OVCAR-5; assay type: cell-based, human; conditions: OVCAR-5
NCI-H322M = assay: NCI-60 SRB screen: non-small cell lung cancer NCI-H322M; assay type: cell-based, human
MOLT-4 = assay: NCI-60 SRB screen: leukemia MOLT-4; assay type: cell-based; conditions: Homo sapiens, 48 h, MOLT-4
SNB-19 = assay: NCI-60 SRB screen: CNS cancer SNB-19; assay type: cell-based, human; conditions: SNB-19
OVCAR-4 = assay: NCI-60 SRB screen: ovarian cancer OVCAR-4; assay type: cell-based; conditions: Homo sapiens; OVCAR-4; five concentrations, 48 h, SRB; read-out: GI50
[1] = system: 60 human tumor cell lines; assay: cells
NCI-H23 = assay: NCI-60 SRB screen: non-small cell lung cancer NCI-H23; assay type: cell-based, human; conditions: NCI-H23
OVCAR-3 = assay: NCI-60 SRB screen: ovarian cancer OVCAR-3; assay type: cell-based, human; conditions: OVCAR-3
U251 = assay: NCI-60 SRB screen: CNS cancer U251; assay type: cell-based; conditions: Homo sapiens, U251
Melanoma subpanel = assay: NCI-60 screen, subpanel Melanoma
MDA-MB-468 = assay: NCI-60 SRB screen: breast cancer MDA-MB-468; assay type: cell-based, human
A549/ATCC = assay: NCI-60 SRB screen: non-small cell lung cancer A549/ATCC; assay type: cell-based, human; conditions: A549/ATCC
HT29 = system: HT29; design: method as in PMID 25405285; conditions: standard drugs used by NCI as control; cited from earlier work
CAKI-1 = system: CAKI-1; design: method as in PMID 25405285; conditions: standard drugs used by NCI as control; cited from earlier work
[2] = single dose 10 µM, read-out: Percentage Cell Growth
[3] = five concentrations, SRB, read-out: GI50
[4] = Homo sapiens, five concentrations, 48 h, SRB, read-out: GI50

Compound: C=C(C)[C@@H]1CC[C@]2(C(=O)OC)CC[C@]3(C)[C@H](CC[C@@H]4[C@@]5(C)CCC(=NOCCC(=NOCCC#N)NCCC#N)C(C)(C)[C@@H]5CC[C@]43C)[C@@H]12 [Compound 21]
- MID b, average sensitivity of all cell line of particular subpanel (Ovarian Cancer subpanel): 11.86 µM
- Selectivity, ratio MID a: MID b (Ovarian Cancer subpanel): 0.86
- activity at 10 µM (CCRF-CEM; [2]): 7.42%
- GI50 (CCRF-CEM; [3]): 11.7 µM
- GI50 (SK-MEL-28; [4]): 17.1 µM
- Percentage Cell Growth (SK-MEL-28; single dose 10 µM): 29.25%
- MID b, average sensitivity of all cell line of particular subpanel (NSCL cancer subpanel): 12.43 µM
- Selectivity, ratio MID a: MID b (NSCL cancer subpanel): 0.83
- GI50 (SNB-75; [4]): 31.2 µM
- Percentage Cell Growth (SNB-75; single dose 10 µM): 18.44%
- GI50 (EKVX; [4]): 4.77 µM
- Percentage Cell Growth (EKVX; single dose 10 µM): 53.13%
- GI50 (SK-MEL-5; [4]): 3.02 µM
- Percentage Cell Growth (SK-MEL-5; single dose 10 µM): −84.68%
- MID b, average sensitivity of all cell line of particular subpanel (CNS cancer subpanel): 15.32 µM
- Selectivity, ratio MID a: MID b (CNS cancer subpanel): 0.67
- GI50 (IGROV1; Homo sapiens, IGROV-1, five concentrations, 48 h, SRB, read-out: GI50): 14.9 µM
- Percentage Cell Growth (IGROV1; single dose 10 µM): 18.78%
- GI50 (NCI/ADR-RES; [4]): 13.5 µM
- Percentage Cell Growth (NCI/ADR-RES; single dose 10 µM): 17.06%
- Percentage Cell Growth (HOP-92; single dose 10 µM): −14.95%
- GI50 (HOP-92; [4]): 6.9 µM
- GI50 (UACC-62; [4]): 2.32 µM
- Percentage Cell Growth (UACC-62; single dose 10 µM): −25.76%
- MID b, average sensitivity of all cell line of particular subpanel (Colon Cancer subpanel): 7.42 µM
- Selectivity, ratio MID a: MID b (Colon Cancer subpanel): 1.38
- activity at 10 µM (NCI-H460; [2]): 4.23%
- GI50 (NCI-H460; [3]): 11.1 µM
- activity at 10 µM (MCF7; [2]): 12.4%
- GI50 (MCF7; [3]): 3.67 µM
- MID b, average sensitivity of all cell line of particular subpanel (Renal Cancer subpanel): 11.39 µM
- Selectivity, ratio MID a: MID b (Renal Cancer subpanel): 0.89
- MID b, average sensitivity of all cell line of particular subpanel (Leukemia subpanel): 4.90 µM
- Selectivity, ratio MID a: MID b (Leukemia subpanel): 2.09
- Percentage Cell Growth (HS 578T; single dose 10 µM): 24.26%
- GI50 (HS 578T; [4]): 30.2 µM
- GI50 (SF-295; [4]): 21.4 µM
- Percentage Cell Growth (SF-295; single dose 10 µM): 36.56%
- activity at 10 µM (SR; [2]): 1.86%
- GI50 (SR; [3]): 2.87 µM
- GI50 (M14; [4]): 11.9 µM
- Percentage Cell Growth (M14; single dose 10 µM): 26.57%
- GI50 (UACC-257; [4]): 5.35 µM
- Percentage Cell Growth (UACC-257; single dose 10 µM): 8.82%
- activity at 10 µM (HL-60(TB); [2]): 0.9%
- GI50 (HL-60(TB); [3]): 5.18 µM
- GI50 (OVCAR-5; [4]): 16.7 µM
- Percentage Cell Growth (OVCAR-5; single dose 10 µM): 50.59%
- GI50 (NCI-H322M; [4]): > 50 µM
- Percentage Cell Growth (NCI-H322M; single dose 10 µM): 46.12%
- activity at 10 µM (MOLT-4; [2]): -26.8%
- GI50 (MOLT-4; [3]): 2.52 µM
- GI50 (SNB-19; [4]): 12.6 µM
- Percentage Cell Growth (SNB-19; single dose 10 µM): 28.93%
- GI50 (OVCAR-4): 12.3 µM
- GI50 ([1]; read-out: GI50 ranges against all panels of NCI60): 2.02 to 50 µM
- GI50 ([1]; read-out: MID a, average sensitivity of all cell line (GI50-MID)): 10.2 µM
- GI50 (NCI-H23; [4]): 7.59 µM
- Percentage Cell Growth (NCI-H23; single dose 10 µM): 21.79%
- GI50 (OVCAR-3; [4]): 5.17 µM
- Percentage Cell Growth (OVCAR-3; single dose 10 µM): −34.55%
- activity at 10 µM (U251; U-251, 48 h, single dose 10 µM, read-out: Percentage Cell Growth): -39.7%
- GI50 (U251; U-251, five concentrations, 48 h, SRB, read-out: GI50): 4.3 µM
- MID b, average sensitivity of all cell line of particular subpanel (Melanoma subpanel): 8.81 µM
- Selectivity, ratio MID a: MID b (Melanoma subpanel): 1.16
- GI50 (MDA-MB-468; [4]): 2.02 µM
- Percentage Cell Growth (MDA-MB-468; single dose 10 µM): 4.41%
- Percentage Cell Growth (A549/ATCC; single dose 10 µM): 15.82%
- GI50 (A549/ATCC; [4]): 5.27 µM

Compound: COc1cccc2c1C(=O)c1c(O)c3c(c(O)c1C2=O)C[C@@](O)(C(=O)CO)C[C@@H]3O[C@H]1C[C@H](N)[C@H](O)[C@H](C)O1 [DRB, doxorubicin]
- GI50 (HT29): 0.12 µM
- GI50 (CAKI-1): 0.95 µM
